Test results as given in ChEMBL document CHEMBL1201862, “PubChem BioAssay data set” (2004).
The source made the active and inactive calls.

Experiments:
[1] = molecular target: T1, High affinity choline transporter 1 (Homo sapiens, UniProt Q9GZV3); experiment: inhibition of SLC5A7-mediated choline transport – cell-based, HEK-293 hCHT, [3H]-choline uptake, dose response (AID 652177); format: functional
T1 sequence (Q9GZV3 whole entry): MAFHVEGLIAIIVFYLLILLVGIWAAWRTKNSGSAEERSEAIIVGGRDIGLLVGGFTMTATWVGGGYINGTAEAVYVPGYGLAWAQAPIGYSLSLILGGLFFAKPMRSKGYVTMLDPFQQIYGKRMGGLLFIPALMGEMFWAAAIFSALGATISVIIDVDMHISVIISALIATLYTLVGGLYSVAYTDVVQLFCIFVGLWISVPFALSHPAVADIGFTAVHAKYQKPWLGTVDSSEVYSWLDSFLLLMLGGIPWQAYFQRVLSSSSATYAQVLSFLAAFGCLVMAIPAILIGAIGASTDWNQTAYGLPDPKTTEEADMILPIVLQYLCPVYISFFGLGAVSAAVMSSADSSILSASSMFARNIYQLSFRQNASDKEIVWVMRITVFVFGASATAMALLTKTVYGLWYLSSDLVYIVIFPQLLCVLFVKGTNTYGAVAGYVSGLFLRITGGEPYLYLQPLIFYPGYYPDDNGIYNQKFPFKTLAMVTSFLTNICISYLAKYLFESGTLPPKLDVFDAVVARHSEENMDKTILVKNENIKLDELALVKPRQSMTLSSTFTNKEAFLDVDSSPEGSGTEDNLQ

[2] = A Cell-Based Confirmatory Screen for Compounds that Inhibit VEEV, TC-83 (5).; format: functional
[3] = cytotoxicity in MITF-independent A375 cells – cell-based, CellTiter-Glo luminescence, dry powder, set 4, counter-screen for MITF inhibitor project, dose response (AID 624364); format: functional; conditions: A-375;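 also: A375 melanoma cells are MITF independent so this is a counter screen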
[4] = viability loss in MITF-independent A375 cells – cell-based, CellTiter-Glo luminescence, dry powder, set 2, counter-screen for MITF inhibitor project, dose response (AID 624489); format: functional; conditions: A-375;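 also: actives are compounds lowering A375 viability meaning general cytotoxicity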
[5] = Late stage assay provider results from the probe development effort to identify inhibitors of the Plasmodium falciparum M17 Leucine Aminopeptidase (M17LAP): radiolabel-based cell-based dose response assay to identify compounds that inhibit P. falciparum growth in RBCs Set 2.; format: functional
[6] = A Cell-Based Confirmatory Screen for Compounds that Inhibit VEEV, TC-83 (7).; format: functional
[7] = inhibitors of non-replicating M. tuberculosis, dose response, luciferase, dry powder (AID 651619); format: functional; conditions: Mycobacterium tuberculosis
[8] = HeLa cell viability loss – plate reader, dry powder, cytotoxicity control, dose response (AID 651946); format: functional, cell-based
[9] = inhibitors of non-replicating M. tuberculosis, dose response, luciferase, dry powder (AID 651620); format: functional; conditions: Mycobacterium tuberculosis
[10] = growth inhibition of replicating M. tuberculosis, dose response, counter-screen, dry powder, IC90 (AID 651617); format: functional; conditions: Mycobacterium tuberculosis
[11] = MITF Orthogonal Assay: SK-MEL-5 CTG Assay Measured in Cell-Based System Using Plate Reader - 2084-02_Inhibitor_Dose_DryPowder_Activity_Set7.; format: functional
[12] = MITF: Counter assay: A375 proliferation Measured in Cell-Based System Using Plate Reader - 2084-03_Inhibitor_Dose_DryPowder_Activity_Set8.; format: functional; conditions: A-375
[13] = inhibitors of TRPM1-promoter reporter in SK-MEL-5 – cell-based, luciferase, dry powder, set 8, MITF inhibitor project, dose response (AID 624430); format: functional
[14] = Late stage assay provider results from the probe development effort to identify inhibitors of the Plasmodium falciparum M18 Aspartyl Aminopeptidase (M18AAP): radiolabel-based cell-based dose response assay to identify compounds that inhibit P. falciparum growth in RBCs, Set 2..; format: functional
[15] = CTGF mRNA reduction in DLD1 cells – cell-based, DLD1 colon cancer, RT-qPCR, cherry-pick, dose response (AID 1053122); format: functional; conditions: Cancer cell lines

SMILES: COc1ccc(C(=O)NCc2cc(C(C)C)no2)cc1OCCN1CCCCC1
- IC50 [1]: 760 nM (active)

SMILES: O=c1c2cc([N+](=O)[O-])ccc2nc(CN2CCCCC2)n1-c1ccccc1F
- IC50 [2]: 4.7 µM (active)

SMILES: CC(=O)NC1=C(c2ccc3c(c2)oc2ccccc23)C(=O)c2ccccc2C1=O
- AC50 [3]: 26.9 µM (active)
- AC50 [4]: 14.9 µM (active)

SMILES: CCCOc1ccc(CC(=O)NO)cc1
- IC50 [5]: 8.6 µM (active)

SMILES: CN(c1ccc(OCc2ccccc2)cc1)c1nc(=O)c2cccnc2s1
- IC50 [6]: 2.33 µM (active)

SMILES: Cc1cccc(CSc2nnc(-c3ccc(Cl)cc3)o2)n1
- IC90 [7]: 2 µM (active)
- AC50 [8]: > 24 µM (inactive)
- IC90 [9]: 2 µM (active)
- IC90 [10]: 125 µM (active)

SMILES: CCN1CCN(C2=C(Nc3ccc(Cl)c(Cl)c3)C(=O)c3ccccc3C2=O)CC1
- AC50 [11]: 9.55 µM (active)
- AC50 [12]: 21.1 µM (active)
- AC50 [13]: 10.8 µM (active)

SMILES: COc1ccc(CCCNc2c3ccccc3nc3ccccc23)cc1OC
- IC50 [14]: 2.2 µM (active)

SMILES: C[C@H]1CN([C@@H](C)CO)C(=O)c2cccc(NC(=O)c3nc4ccccc4s3)c2O[C@@H]1CN(C)C(=O)Nc1ccc2c(c1)OCO2
- AC50 [15]: 1.82 µM (active)
